Each block holds one compound with its values, some of them ahead of it. Where no end group is shown, it is not given here. [ ]: non-standard residue; d: D form.
Legend:
collagen I [1] = test: Expression of intracellular collagen I in human fibroblasts by flow cytometry; type: cell-based; details: untreated = 100
Procedure: Protocol: Cultured human fibroblasts were treated with hexapeptide-2 in a concentration of 0.5 and 1 μM after dilution in a culture medium, for 48 hours (2 applications per day). At the same time, fibroblasts were treated with an activator for collagen I: TGF-β (R&D system, Ref. 240B). The fibroblasts were trypsinated and the cellular pellet was recovered. The cells were then fixed with cold methanol for 15 minutes at 4° C. Immunolabelling was carried out with the aid of a mouse monoclonal antibody specific for collagen I (Millipore, Ref: anti-Collagen Type I, Clone: 5D8-G9) coupled with a fluorochrome. Next, 10 000 cells were analysed by flow cytometry (Guava EasyCyte) in order to determine the amount of fluorescence in each of them.

prolidase [2] = test: Expression of prolidase in human fibroblasts (immunofluorescence); type: cell-based; details: 24 hours, 2 applications per day, untreated = 100
Procedure: Protocol: Cultured human fibroblasts were treated with hexapeptide-2 in a final concentration of 0.5 and 1 μM after dilution in a culture medium, for 24 hours (2 applications per day). The cells were then washed, fixed with cold methanol for 4 minutes at 4° C. The cells were incubated in the presence of a mouse monoclonal antibody specific for prolidase (LifeSpan BioSciences, Ref. LS-C115644), then of an anti-mouse secondary antibody coupled to a fluorochrome (Invitrogen, Ref. A21202). The cells were then examined under an epifluorescence microscope (Zeiss Axiovert 200M microscope). Quantification of the fluorescence was carried out from the photographs obtained.

prolidase [3] = test: Activity of prolidase in human fibroblasts (Gly-Pro substrate, Chinard's reagent); type: cell-based; details: untreated = 100
Procedure: Protocol: Cultured human fibroblasts were treated with hexapeptide-2 in a concentration of 0.5 and 1 μM after dilution in a culture medium, for 24 hours (2 applications per day). At the same time, fibroblasts were treated with an activator and an inhibitor of prolidase: retinoic acid (Sigma, Ref. R2625) and Cpz-Pro (Bachem, Ref. 4001343). Next, the cells were detached from the dish with the aid of a 150 mM NaCl solution. After having recovered the cellular pellet and activating the prolidase with a solution containing 2 mM MnCl2 for 2 hours at 37° C., the prolidase substrate was added: 47 mM of Glycine-Proline (Sigma, Ref. G3002) for 1 hour at 37° C. Next, the amount of proline contained in each sample was determined at a wavelength of 515 nm using Chinard's reagent. At the same time, a proline concentration range was produced in order to establish a calibration curve. The amount of protein was determined using the BCA protein assay kit (Thermo Scientific, Ref. 23225), which enabled the ratio of proline to the number of proteins in each sample to be recorded.

collagen I [4] = test: Expression of collagen I in human skin in ex vivo culture; type: cell-based; details: 48 hours, untreated = 100
Procedure: (§1) Protocol: Samples of human skin were cultured at the air/liquid interface. Hexapeptide-2 was applied topically to the samples in concentrations of 0.5 and 1 μM after dilution in a culture medium, in an amount of 2 applications per day, then the samples were incubated for 48 hours at 37° C.
(§2) These skin samples were subsequently fixed with formaldehyde then included into paraffin. 4 μm sections were then produced.
(§3) Labelling of the collagens I and III was then carried out after demasking specific sites by microwave incubation then by treatment with trypsin. The immunolabelling was carried out with the aid of a rabbit polyclonal antibody specific for collagen I (Rockland, Ref. 600-401-103-0.5), a rabbit polyclonal antibody specific for collagen III (Rockland, Ref 600-401-105-0.5), then an anti-rabbit secondary antibody coupled to a fluorochrome (Invitrogen, Ref. A21206). The cells were then examined under an epifluorescence microscope (Zeiss Axiovert 200M microscope). A quantification of the fluorescence from the photographs obtained was carried out.

collagen III = test: Expression of collagen III in human skin in ex vivo culture; type: cell-based; details: 48 hours, untreated = 100
Procedure: as §1, §2, §3

miRNA-29a 3p [5] = test: Expression of miRNA-29a 3p in human fibroblasts from donors of different ages (qPCR); type: cell-based; details: overnight, concentration (0.5 or 1 μM) not stated
Procedure: Protocol: Human fibroblasts from 3 donors were treated with hexapeptide-2 in a concentration of 0.5 and 1 μM in culture medium overnight (1 application).
The miRNAs were extracted with the aid of an extraction kit (Ambion, Ref. AM1561), then reverse transcribed with a specific kit (Applied Biosystem, Ref 4374966). A real time PCR was carried out in a thermocycler using a TaqMan Gene Expression Assay specific for miRNA-29a 3p (Applied Biosystems, Ref 002112) and a TaqMan Gene Expression Assays specific for RNU44 used as the control endogen (Applied Biosystems, Ref. 001094). The relative quantification if the expression of miRNA-29a 3p was carried out by the comparative Ct method.

[6] = tested on: human fibroblasts made senescent by transfection with the siRNA FOXO3a; test: Activity of β-galactosidase in human fibroblasts made senescent by transfection with the siRNA FOXO3a; type: cell-based; details: 1 μM, 48 hours, siRNA FOXO3a transfected cells; results not shown
Procedure: Protocol: Cultured human fibroblasts were treated or not treated with a specific siRNA of FOXO3a (Invitrogen, Ref. HSS177176) in a final concentration of 25 nM using the technique of transfection by Lipofectamine™ RNAiMAX (Invitrogen, Ref 56531) and treated or not treated with hexapeptide-2 in a final concentration of 1 μM in culture medium, for 48 hours (2 applications per day).
The cells were rinsed and fixed in a fixing buffer (0.2% glutaraldehyde, 2% formaldehyde). The cells were then incubated at 37° C. without CO2 for 24 hours, with a solution of 1 mg/mL X-Gal in 40 mM of citric acid/phosphate (pH 6), 5 mM K3FeCN6, 5 mM K4FeCN6, 150 mM NaCl and 2 mM MgCl2. The cells were then examined under white light with a microscope (Nikon Eclipse E600 microscope).

collagen I [7] = test: Expression of collagen I in human fibroblasts made senescent by transfection with the siRNA FOXO3a; type: cell-based; details: 0.5 or 1 μM, 48 hours, siRNA FOXO3a transfected cells
Procedure: Protocol: Cultured human fibroblasts were treated or not treated with a specific siRNA of FOXO3a (Invitrogen, Ref. HSS177176) in a final concentration of 25 nM using the technique of transfection by Lipofectamine™ RNAiMAX (Invitrogen, Ref. 56531) and treated or not treated with hexapeptide-2 in a concentration of 0.5 or 1 μM in culture medium, for 48 hours (2 applications per day).
The fibroblasts were trypsinated and the cellular pellet was recovered. The cells were then fixed with cold methanol for 15 minutes at 4° C. Immunolabelling was carried out with the aid of a mouse monoclonal antibody specific for collagen I (Millipore, Ref. anti-Collagen Type I, Clone: 5D8-G9) coupled with a fluorochrome. Next, 10 000 cells were analysed using flow cytometry (Guava EasyCyte) in order to determine the level of fluorescence in each of them.

[8] = tested on: human fibroblasts made senescent by replicative senescence; test: Activity of β-galactosidase in human fibroblasts made senescent by replicative senescence (long-term treatment); type: cell-based; details: 1 μM daily, long-term (about 3 months), general over passes
Procedure: Protocol: Human fibroblasts were cultured in a specific medium and maintained under culture (for more than 27 passes) and treated or not treated with a daily application of hexapeptide-2 in a concentration of 1 μM in the culture medium, (i.e. 5 applications per week). A portion of the cells was frozen in each pass. Next, key passes were selected: passes 4, 12, 16, 20, 24 and 27. After freezing, the senescent phenotype of the fibroblasts treated or not treated with 1 μM hexapeptide-2 was evaluated by assaying the activity of β-galactosidase.
(§4) To this end, the cells were rinsed and fixed in a fixing buffer (0.2% glutaraldehyde, 2% formaldehyde). The cells were then incubated, at 37° C. without CO2 for 24 hours, with a solution of 1 mg/mL X-Gal in 40 mM of citric acid/phosphate (pH 6), 5 mM K3FeCN6, 5 mM K4FeCN6, 150 mM NaCl and 2 mM MgCl2. The cells were then examined under white light with a microscope (Nikon Eclipse E600 microscope).

[9] = tested on: senescent human fibroblasts by replicative senescence; test: Activity of β-galactosidase in senescent human fibroblasts by replicative senescence (short-term treatment); type: cell-based; details: 1 μM, 48 hours, general over passes
Procedure: Protocol: Human fibroblasts were cultured in a specific medium and maintained under long-term culture treatment (for more than 28 passes, i.e. approximately 3 months). A portion of the cells was frozen in each pass. Next, key passes were selected: passes 4, 12, 16, 20 and 28. After freezing, the fibroblasts were treated with 1 μM hexapeptide-2 in culture medium, for 48 hours (2 applications per day). The senescent phenotype of the fibroblasts treated or not treated with 1 μM hexapeptide-2 was evaluated by assaying the activity of the β-galactosidase.
as §4

prolidase [10] = test: Activity of prolidase in human fibroblasts made senescent by replicative senescence (long-term treatment); type: cell-based; details: 1 μM daily long-term
Procedure: Protocol: Human fibroblasts were cultured in a specific medium and maintained under long-term culture treatment (for more than 20 passes, i.e. approximately 3 months), treated or not treated with the aid of a daily application of hexapeptide-2 in a concentration of 1 μM in culture medium, (5 applications per week). A portion of the cells was frozen for each pass. Next, two passes were selected: passes 12 and 20.
To this end, the cells were detached from their support with a solution of 150 mM NaCl. After recovering the cellular pellet and activating the prolidase with a solution containing 2 mM of MnCl2 for 2 hours at 37° C., the substrate for the prolidase was added: 47 mM of Glycine-Proline (Sigma, Ref. G3002), for 1 hour at 37° C. Next, the proline content contained in each sample was determined at a wavelength of 515 nm using Chinard's reagent. At the same time, a concentration range for proline was produced in order to establish a calibration curve. The protein content was determined using the BCA protein assay kit (Thermo Scientific, Ref. 23225), in order to relate the proline content with the number of proteins in each sample.

miRNA-29a 3p [11] = test: Expression of miRNA-29a 3p in human fibroblasts made senescent by replicative senescence (long-term treatment); type: cell-based
Procedure: Protocol: Human fibroblasts were cultured in a specific medium and maintained under a long-term culture treatment (for more than 24 passes, i.e. approximately 3 months), treated or not treated by means of a daily application of hexapeptide-2 in a concentration of 1 μM in culture medium, (5 applications per week). For each pass, a portion of the cells was frozen. Next, three passes were selected: passes 4, 12 and 24.
The miRNAs were extracted with the aid of an extraction kit (Ambion, Ref AMI1561), then reverse transcribed with a specific kit (Applied Biosystems, Ref 4374966). A real-time PCR was carried out in a thermocycler with the aid of a TaqMan Gene Expression Assay specific for miRNA-29a 3p (Applied Biosystems, 002112) and a TaqMan Gene Expression Assay specific for RNU44 used as an endogenic control (Applied Biosystems, 001094). The relative quantification of the expression of miRNA-29a 3p was carried out using the comparative Ct method.

collagen = details: concentrations of 1 μM, 10 μM and 100 μM; cited from earlier work

Compound: TGF-β: activator for collagen I (R&D system, Ref. 240B)
Expression of collagen I (%) (collagen I [1]; 10 ng/ml): 182%

Activity of prolidase (%) (prolidase [3]; 0.5 μM, 24 hours): 122% | Activity of prolidase (%) (prolidase [3]; 1 μM, 24 hours): 114% | effect on activity of prolidase (prolidase [10]; young cells (P12)): little or no effect
Compound: His-D-Trp-Ala-Trp-D-Phe-Lys-NH2 (H[dW]AW[dF]K-NH2) [hexapeptide-2]
Expression of prolidase (intensity/area of cells (%)) (prolidase [2]; 0.5 μM): 118% | Expression of prolidase (intensity/area of cells (%)) (prolidase [2]; 1 μM): 128% | Expression of collagen I (%) (collagen I [1]; 0.5 μM, 48 hours): 120% | Expression of collagen I (%) (collagen I [1]; 1 μM, 48 hours): 145% | Expression of collagen I (%) (collagen I [4]; 0.5 μM topical): 119% | Expression of collagen I (%) (collagen I [4]; 1 μM topical): 154% | Expression of Collagen III (%) (collagen III; 0.5 μM topical): 155% | Expression of Collagen III (%) (collagen III; 1 μM topical): 155% | reduction in the expression of miRNA-29a 3p (miRNA-29a 3p [5]; fibroblasts of donor one): −14% | reduction in the expression of miRNA-29a 3p (miRNA-29a 3p [5]; fibroblasts of donor three): −27% | reduction in the expression of miRNA-29a 3p (miRNA-29a 3p [5]; fibroblasts of donor two): −13% | activity of β-galactosidase linked to senescence (number of blue-stained cells) [6]: visible reduction in the activity of β-galactosidase | expression of collagen I in senescent cells (collagen I [7]): smaller reduction in the expression of collagen I | reduction in the activity of beta-galactosidase compared with untreated cells [8]: −22% | reduction in the activity of the β-galactosidase compared with untreated cells [9]: −31% | restoration in the activity of prolidase compared with untreated control cells in the same pass (prolidase [10]; senescent cells (P20)): 20% | effect on the expression of miRNA-29a 3p (miRNA-29a 3p [11]; pass 4, 1 μM daily long-term): no effect | reduction in the expression of miRNA-29a 3p (miRNA-29a 3p [11]; pass 12, 1 μM daily long-term): −16% | reduction in the expression of miRNA-29a 3p (miRNA-29a 3p [11]; pass 24, 1 μM daily long-term): −7% | effect on the secretion of collagen by fibroblasts cultured in vitro (collagen): no effect

Activity of prolidase (%) (prolidase [3]; 10 mM): 90%
Compound: O=C(O)[C@@H]1CCCN1C(=O)OCc1ccccc1 [Cpz-Pro, reference compound]

Compound: CC1=C(/C=C/C(C)=C/C=C/C(C)=C/C(=O)O)C(C)(C)CCC1 [retinoic acid, reference compound]
Activity of prolidase (%) (prolidase [3]; 1 μM, 24 hours): 105%

From patent US11628133B2, “Uses of the peptide of sequence His-D-Trp-Ala-Trp-d-Phe-Lys-NH2 for reducing or delaying the appearance of cell senescence and signs of skin aging” (ISP INVESTMENTS LLC, priority 2015, dated 2023)
